ChEMBL document CHEMBL5543127, “Design, Synthesis, and Biological Evaluation of 2-Phenoxyalkylhydrazide Benzoxazole Derivatives as Quorum Sensing Inhibitors with Strong Antibiofilm Effect” (J Med Chem, 2024)
In brackets after ≈: the same amount, converted by molar mass. Activity calls are given as the source filed them. The calls are words filed in the database; no cut-off is given here.

Assays:
[1] = tested on: Bacillus subtilis; experiment: Anti-microbial activity against Bacillus subtilis ATCC9372 incubated for 20 hrs By CLSI based micro-dilution method; type: functional
[2] = tested on: Bacillus pumilus; experiment: Anti-microbial activity against Bacillus pumilus CMCC63202 incubated for 20 hrs By CLSI based micro-dilution method; type: functional
[3] = tested on: Staphylococcus aureus; experiment: Anti-microbial activity against erythromycin-susceptible Staphylococcus aureus ATCC25923 incubated for 20 hrs By CLSI based micro-dilution method; type: functional
[4] = tested on: Staphylococcus aureus; experiment: Anti-microbial activity against methicillin-resistant Staphylococcus aureus ATCC43300 incubated for 20 hrs By CLSI based micro-dilution method; type: functional
[5] = tested on: Pseudomonas aeruginosa; experiment: Anti-microbial activity against penicillin-susceptible Pseudomonas aeruginosa 27853 incubated for 20 hrs By CLSI based micro-dilution method; type: functional
[6] = tested on: Escherichia coli; experiment: Anti-microbial activity against penicillin-susceptible Escherichia coli ATCC25922 incubated for 20 hrs By CLSI based micro-dilution method; type: functional
[7] = tested on: Pseudomonas aeruginosa; experiment: Anti-microbial activity against Pseudomonas aeruginosa PAO1 incubated for 20 hrs By CLSI based micro-dilution method; type: functional
[8] = Inhibition of quorum sensing system in Pseudomonas aeruginosa PAO1 at logarithmic growth period assessed as inhibition of pyocyanin production at 102.4 microg/ml incubated for 18 hrs by pyocyanin inhibition assay; settings: dose 102.4 µg/ml
[9] = tested on: Pseudomonas aeruginosa; experiment: Inhibition of protease in logarithmic growth phase Pseudomonas aeruginosa PAO1 assessed as inhibition rate at 102.4 microg/ml measured after 32 hrs; settings: dose 102.4 µg/ml
[10] = tested on: Pseudomonas aeruginosa; experiment: Anti-virulence activity against logarithmic growth phase Pseudomonas aeruginosa PAO1 assessed as inhibition of Rhamnolipid production at 102.4 microg/ml measured after 24 hrs; type: functional
[11] = tested on: Pseudomonas aeruginosa; experiment: Antibiofilm activity against logarithmic growth phase Pseudomonas aeruginosa PAO1 assessed as inhibition of biofilm formation at 16 microg/ml incubated for 20 hrs by crystal violet staining based analysis; type: functional; settings: dose 16.0 µg/ml
[12] = tested on: Pseudomonas aeruginosa; experiment: Antibiofilm activity against logarithmic growth phase Pseudomonas aeruginosa PAO1 assessed as inhibition of biofilm formation at 32 microg/ml incubated for 20 hrs by crystal violet staining based analysis; type: functional
[13] = tested on: Pseudomonas aeruginosa; experiment: Induction of anti-bacterial effect in Pseudomonas aeruginosa PAO1 assessed as synergistic effect by measuring reduction in bacterial survival in presence of ciprofloxacin measured after 24 hrs incubation; type: functional, organism-based; settings: dose 8-128 µg/ml
[14] = tested on: Pseudomonas aeruginosa; experiment: Induction of anti-bacterial effect in Pseudomonas aeruginosa PAO1 assessed as synergistic effect by measuring reduction in bacterial survival in presence of clarithromycin measured after 24 hrs incubation; type: functional, organism-based; settings: dose 8-128 µg/ml
[15] = tested on: Pseudomonas aeruginosa; experiment: Antibacterial activity against Pseudomonas aeruginosa PAO1 at logarithmic growth phase assessed as growth inhibition at 153.6 microg/ml measured upto 25 hrs by growth curve assay; type: functional, organism-based; settings: dose 153.6 µg/ml
[16] = tested on: Pseudomonas aeruginosa; experiment: Induction of anti-bacterial effect in Pseudomonas aeruginosa PAO1 assessed as synergistic effect by measuring reduction in bacterial survival in presence of ciprofloxacin at 128 microg/ml measured after 24 hrs incubation relative to control; type: functional; settings: dose 128 µg/ml
[17] = tested on: Pseudomonas aeruginosa; experiment: Induction of anti-bacterial effect in Pseudomonas aeruginosa PAO1 assessed as synergistic effect by measuring reduction in bacterial survival in presence of ciprofloxacin at 16 to 128 microg/ml measured after 24 hrs incubation; type: functional, organism-based; settings: dose 16-128 µg/ml
[18] = tested on: Pseudomonas aeruginosa; experiment: Induction of anti-bacterial effect in Pseudomonas aeruginosa PAO1 assessed as synergistic effect by measuring reduction in bacterial survival in presence of clarithromycin at 16 to 128 microg/ml measured after 24 hrs incubation; type: functional, organism-based; settings: dose 16-128 µg/ml
[19] = tested on: Erythrocyte; experiment: Hemolytic activity in mouse RBC isolated from eye ball assessed as hemolysis at 256 microg/ml incubated for 1 hr; type: toxicity, cell-based; settings: dose 256 µg/ml
[20] = tested on: Pseudomonas aeruginosa; experiment: Antibacterial activity against Pseudomonas aeruginosa 27853 at logarithmic growth phase assessed as growth inhibition at 153.6 microg/ml measured upto 25 hrs by growth curve assay; type: functional, organism-based; settings: dose 153.6 µg/ml
[21] = tested on: Pseudomonas aeruginosa; experiment: Induction of morphological changes in biofilm of Pseudomonas aeruginosa PAO1 assessed as biofilm damage at 102.4 microg/ml measured after 24 hrs by scanning electron microscopy; type: functional, organism-based; settings: dose 102.4 µg/ml

| SMILES | MIC [1] [µg/mL] | MIC [2] [µg/mL] | MIC [3] [µg/mL] | MIC [4] [µg/mL] | MIC [5] [µg/mL] | MIC [6] [µg/mL] | MIC [7] [µg/mL] | inhibition [8] | inhibition [9] | inhibition at 102.4 µg/mL [10] [%] | inhibition [11] | inhibition at 32 µg/mL [12] [%] | Activity [13] | Activity [14] | Activity [15] | Activity [19] | Activity [20] | further results |
| --- | --- | --- | --- | --- | --- | --- | --- | --- | --- | --- | --- | --- | --- | --- | --- | --- | --- | --- |
| O=C(CCCCOc1ccc(Cl)cc1)NNc1nc2ccc(Cl)cc2o1 | 512 (≈ 1300 µM) | 256 (≈ 649 µM) | 256 (≈ 649 µM) | 256 (≈ 649 µM) | > 512 | > 512 | > 512 | Active | inactive | > 40 | Active | > 25.4 | Dose-Dependent Effect | Dose-Dependent Effect |  |  |  |  |
| CCCCCCCCCCC(=O)N/N=c1\sc2ccccc2n1C | > 512 | > 512 | > 512 | > 512 | > 512 | > 512 | > 512 |  | > 20% |  | Active | > 25.4 | Dose-Dependent Effect | Dose-Dependent Effect | inactive | Non-Toxic | inactive | Activity [16]: >90%; Activity [17]: Active; Activity [18]: Active |
| O=C(NNc1nc2ccccc2s1)c1ccccc1F | 512 (≈ 1780 µM) | 512 (≈ 1780 µM) | > 512 | > 512 | 512 (≈ 1780 µM) | > 512 | > 512 | 62.8% | > 20% |  | Active | > 25.4 | Dose-Dependent Effect | Dose-Dependent Effect | inactive | Non-Toxic | inactive |  |
| CC[C@H]1OC(=O)[C@H](C)[C@@H](O[C@H]2C[C@@](C)(OC)[C@@H](O)[C@H](C)O2)[C@H](C)[C@@H](O[C@@H]2O[C@H](C)C[C@H](N(C)C)[C@H]2O)[C@](C)(O)C[C@@H](C)CN(C)[C@H](C)[C@@H](O)[C@]1(C)O [AZITHROMYCIN] | 0.25 (≈ 0.334 µM) | 0.25 (≈ 0.334 µM) | 0.25 (≈ 0.334 µM) | 256 (≈ 342 µM) | 16 (≈ 21.4 µM) | 128 (≈ 171 µM) | 256 (≈ 342 µM) |  |  |  |  |  |  |  |  |  |  | Activity [21]: Active |
| COc1ccc(OCCCCC(=O)NNc2nc3ccccc3o2)cc1 | 512 (≈ 1440 µM) | > 512 | 512 (≈ 1440 µM) | > 512 | 512 (≈ 1440 µM) | > 512 | > 512 | Active | 14.6% | 52.1 | Active | > 25.4 | Dose-Dependent Effect | Dose-Dependent Effect |  | Non-Toxic |  |  |
| O=C(CCCCOc1ccc(Cl)cc1)NNc1nc2ccccc2s1 | > 512 | 256 (≈ 681 µM) | 256 (≈ 681 µM) | 512 (≈ 1360 µM) | > 512 | > 512 | > 512 | Active |  | > 40 | Active | > 25.4 |  |  | inactive |  | inactive |  |
| COc1ccc(OCCCC(=O)NNc2nc3ccccc3o2)cc1 | 512 (≈ 1500 µM) | 512 (≈ 1500 µM) | 64 (≈ 187 µM) | 128 (≈ 375 µM) | 128 (≈ 375 µM) | > 512 | > 512 | inactive | 30% | > 40 | Active | > 25.4 |  |  |  |  |  |  |
| O=C(CCCCOc1ccc(F)cc1)NNc1nc2ccc(Cl)cc2o1 | 512 (≈ 1360 µM) | 256 (≈ 678 µM) | 512 (≈ 1360 µM) | 256 (≈ 678 µM) | > 512 | > 512 | > 512 | Active | inactive | > 40 | Active | > 25.4 |  |  |  |  |  |  |
| O=C(CCCOc1ccc(C(F)(F)F)cc1)NNc1nc2ccccc2o1 | 512 (≈ 1350 µM) | > 512 | 256 (≈ 675 µM) | 256 (≈ 675 µM) | 256 (≈ 675 µM) | > 512 | > 512 | inactive | 30% | > 40 | Active | > 25.4 | Dose-Dependent Effect | Dose-Dependent Effect | inactive | Non-Toxic | inactive |  |
| O=C(CCCOc1cccc(C(F)(F)F)c1)NNc1nc2ccccc2o1 | 512 (≈ 1350 µM) | > 512 | 256 (≈ 675 µM) | 512 (≈ 1350 µM) | 256 (≈ 675 µM) | > 512 | > 512 | inactive | 30% | > 40 | Active | > 25.4 | Dose-Dependent Effect | Dose-Dependent Effect | inactive |  | inactive |  |
| O=C(CCCCOc1ccc(F)cc1)NNc1nc2ccccc2o1 | > 512 | > 512 | > 512 | > 512 | 512 (≈ 1490 µM) | > 512 | > 512 | 53.6% | inactive |  | Active | > 25.4 | Dose-Dependent Effect | Dose-Dependent Effect |  | Non-Toxic |  | Activity [16]: >90%; Activity [17]: Active; Activity [18]: Active |
| Cc1ccc(C(=O)NNc2nc3ccccc3s2)cc1 | 512 (≈ 1810 µM) | 256 (≈ 903 µM) | 512 (≈ 1810 µM) | 256 (≈ 903 µM) | 512 (≈ 1810 µM) | > 512 | > 512 | 62.8% | > 20% |  | Active | > 25.4 | Dose-Dependent Effect | Dose-Dependent Effect | inactive | Non-Toxic | inactive |  |
| O=C(CCCCOc1cccc(F)c1)NNc1nc2ccccc2o1 | > 512 | > 512 | 512 (≈ 1490 µM) | > 512 | 512 (≈ 1490 µM) | > 512 | > 512 | Active | inactive | 52.1 | Active | > 25.4 | Dose-Dependent Effect | Dose-Dependent Effect |  | Non-Toxic |  | Activity [16]: >90%; Activity [17]: Active; Activity [18]: Active |
| O=C(CCCCOc1ccc(Cl)cc1)NNc1nc2ccccc2o1 | 512 (≈ 1420 µM) | > 512 | 128 (≈ 356 µM) | 512 (≈ 1420 µM) | 512 (≈ 1420 µM) | > 512 | > 512 | Active | inactive |  | Active | > 25.4 | Dose-Dependent Effect | Dose-Dependent Effect |  | Non-Toxic |  | Activity [16]: >90%; Activity [17]: Active; Activity [18]: Active |
